Laboratory results as given in patent US7605185B2, “Treatment of arrhythmia by retinoids affecting signal transduction” (priority 1999, dated 2009).

Key:
[1] = test system: mouse heart (cardiomyocytes); test: Perinatal mouse heart model: cardiac growth, heart size and weight after retinoid gavage; format: in vivo
Description: (§1) 1 week old litters of C57/b mice (around 3 g body weight) were divided into groups of five to 10 animals, to be treated with all-trans-RA in carrier, 9cis-RA in carrier, or carrier (canola oil, Sigma). Every treatment group was assigned to one nursing mother. Groups larger than 10 pups were avoided, to exclude limited feeding frequency as experimental variable. A retinoid preparation for gavage was formulated such that every animal received a maximum of 150 μl volume containing 40 mg/kg all-trans RA in carrier, 12 mg/kg or 20 mg/kg 9cis-RA in carrier, or carrier alone. DMSO or ethanol content was limited to 0.1%. Pups were gavage-fed from a tuberculin syringe connected with a bent vein catheter. The strong suckling reflex facilitated delivery of the viscous and odorous formulation. Depending on the territorial protection behaviour of the mother, pups were briefly rolled in cage stray after gavage to prevent triggering maternal infanticide behaviour through unusual smell of the pups. For two hours after gavage, pups were carefully monitored to prevent maternal infanticide. Every 24 h, the weight was recorded.
(§2) For uptake kinetics, pairs of treated pups were sacrificed by decapitation after 1 h, 2 h, 4 h, 8 h, 16 h, 24 h, 36 h and 72 h. Organs were removed under the dissection microscope and frozen in liquid nitrogen. Hearts were dissected under the surgical dissection microscope; tissues were divided into atria, ventricles, and enriched in conductance system (a tissue preparation containing the ventricular septa with the Purkinje fibers and the atrial region between the aorta and the pulmonal artery (outflow tract) with the sinus node). For immunohistology, pups were sacrificed after 72 h, hearts were rinsed in PBS, weighed and fixed in 4% para-formaldehyde in PBS before embedding in OCT for standard cryostat procedures. If pups were on the brink of death (typically between 36 and 72 h after gavage), they were sacrificed, and hearts were collected for confocal microscopy or HPLC.

[2] = test system: cardiac conductance cells and cardiac neurons; test: TUNEL apoptosis staining with connexin37/40 or neuron-specific enolase counterstain, confocal microscopy; format: in vivo, mouse
Description: as §1, §2
For confocal microscopy, cryostat sections were first stained for apoptotic DNA strand breaks according to the TUNEL protocol (using the commercially available Apoptag™ kit, Oncor Inc., Gaithersburg Md.) and counterstained with rabbit anti-connexin37 antibody or rabbit anti-connexin40 antibody for conductance cells, or with rabbit anti-myosin antibody for cardiac myocytes. Immunodetection of connexin isoforms 40 and 43 has been established as a useful method to detect cells of the cardiac conductance system in rodents (Gourdie et al., The spatial distribution and relative abundance of gap-junctional connexin40 and connexin43 correlate to functional properties of components of the cardiac atrioventricular conducting system, J. Cell Science 105 (Pt 4) 985-991, 1993); because of the relatively weak signal of connexin40, the connexin isoform 37 can be used as equivalent marker for the conductance system in the mouse model (Willecke K et al, 1991; Willecke K, personal communication). The combination of rabbit anti-Neuron-specific enolase with propidium iodide followed published procedures (Current Protocols in Molecular Biology) and was used to identify cardiac neurons with advanced apoptotic condensation of nuclei. Procedures of immunohistology and image analysis are further described in detail in Graupner, WO 00/53236.

[3] = test system: cardiac myocytes; test: TUNEL apoptosis staining with anti-myosin counterstain, confocal microscopy; format: in vivo, mouse
From the text: as §1, with “A retinoid preparation for gavage was formulated such that every animal received a maximum of 150 μl volume containing 40 mg/kg all-trans RA in carrier, 12 mg/kg or 20 mg/kg 9cis-RA in carrier, or carrier alone.” left out
(§3) For uptake kinetics, pairs of treated pups were sacrificed by decapitation after 1 h, 2 h, 4 h, 8 h, 16 h, 24 h, 36 h and 72 h. Organs were removed under the dissection microscope and frozen in liquid nitrogen. […]

[4] = test system: mitochondrial Mn-dependent superoxide dismutase Mn-SOD; test: Quantitative confocal immunohistology of Mn-SOD protein signal in cardiac outflow tract; format: in vivo, mouse; settings: 20 mg/kg; for upregulation of MnSOD protein signal: connexin-positive cells
Description: as §1, with “recorded. […]” for “recorded.”
The mechanism of apoptosis was investigated using commercially available primary antibodies of highest purity, at dilutions recommended by the manufacturer, against IGF-1, IGF-II, the entire set of IGFbinding proteins (IGFBP1-5), IGF-R, mitochondrial Mn-dependent superoxide dismutase Mn-SOD, and cytoplasmic Cu/Zn-dependent superoxide dismutase Cu/Zn-SOD. […] Confocal images were captured and processed for quantitative analysis by Zeiss LSM-300 software. Briefly, the pixel intensities per unit area amounting to channel background were determined for each antibody/seconday antibody combination and subtracted from the experimental pixel intensities. […] At least five independent regions of similar size were analyzed per tissue type and retinoid treatment condition. Averaged pixel intensities per unit area upon 9cis retinoid induction were expressed as multiples of averaged pixel intensities per unit area in the absence of 9cis retinoid induction (fold induction +/−s.e.m.)

[5] = test system: endogenous peroxidase activity; test: Gas release from heart tissue sections on addition of H2O2; format: in vivo, mouse; settings: 20 mg/kg
Description: as §1, with “The strong suckling reflex facilitated delivery of the viscous and odorous formulation. Depending on the territorial protection behaviour of the mother, pups were briefly rolled in cage stray after gavage to prevent triggering maternal infanticide behaviour through unusual smell of the pups.” left out
Another observation with significant ramifications is the substantial activation of pathways metabolizing reactive oxygen species in cardiac tissue after administration of 20 mg/kg of 9cis-RA. […] Second, very high upregulation of MnSOD protein signal was detected in connexin-positive cells of the cardiac outflow tract; the signal of 3.4 fold upregulation localizes to the region of the atrium surrounding the sino-atrial node; the signal of 11 fold upregulation localizes most likely to the area of the sino-atrial node proper. […]

[6] = test system: IGFBP5; test: Confocal immunohistology of IGF pathway proteins in cardiac cell types; format: in vivo, mouse; settings: after treatment, dose not stated
Description: as §1, with “The strong suckling reflex facilitated delivery of the viscous and odorous formulation. Depending on the territorial protection behaviour of the mother, pups were briefly rolled in cage stray after gavage to prevent triggering maternal infanticide behaviour through unusual smell of the pups.” left out, “recorded. […]” for “recorded.”
The mechanism of apoptosis was investigated using commercially available primary antibodies of highest purity, at dilutions recommended by the manufacturer, against IGF-1, IGF-II, the entire set of IGFbinding proteins (IGFBP1-5), IGF-R, mitochondrial Mn-dependent superoxide dismutase Mn-SOD, and cytoplasmic Cu/Zn-dependent superoxide dismutase Cu/Zn-SOD. […] Confocal images were captured and processed for quantitative analysis by Zeiss LSM-300 software. […] At least five independent regions of similar size were analyzed per tissue type and retinoid treatment condition. […]

[7] = Death of mouse pups after gavage; format: in vivo; settings: nonmutagenic amounts
Description: as §1, §3

[8] = higher amounts, 20 mg/kg and higher, mice
[9] = in vivo administration to mice, dose not stated

CC1=C(/C=C/C(C)=C/C=C/C(C)=C/C(=O)O)C(C)(C)CCC1 [all-trans-RA, all-trans retinoic acid]
myocardial growth reduction ([1]; 40 mg/kg): less than 30% | correlation between apoptosis and conductance cell type ([2]; 40 mg/kg): no correlation

CC1=C(/C=C/C(C)=C\C=C\C(C)=C\C(=O)O)C(C)(C)CCC1 [9cis-RA, 9-cis retinoic acid]
effect on growth (growth factor-dependent pathway) ([1]; 10 mg/kg): growth-inhibitory effect | size of the average myocardial myocyte ([1]; 20 mg/kg or less than 10 mg/kg): reduced | myocardial growth stunting ([1]; around 10 mg/kg): approached complete growth arrest | growth of cardiomyocytes [1, 8]: reduced growth of cardiomyocytes | growth of cardiomyocytes [1, 9]: reduced growth of cardiomyocytes | cell growth in heart ([1]; moderate amounts, 3-10 mg/kg, mice): reduced growth of cardiomyocytes, cardiac neurons, and cells of the cardiac conductance system | apoptosis in cardiac conductance cells of perinatal mouse heart (FIG. 3, confocal micrographs) ([2]; 20 mg/kg): colocalization of apoptosis in cardiac conductance cells | correlation between apoptosis and conductance cell phenotype ([2]; 20 mg/kg): strong correlation | effect on apoptosis ([2]; 40 mg/kg): pro-apoptotic effect | apoptosis of cardiac neurons and cardiac pacemaker cells [2, 8]: apoptosis of cardiac neurons and cardiac pacemaker cells | apoptosis in cardiac neurons and cardiac conductance system [2, 9]: apoptosis in cardiac neurons and cells of the cardiac conductance system | correlation between apoptosis and conductance cell type ([2]; less than 10 mg/kg): no correlation | colocalization of TUNEL signal in cardiac myocytes ([3]; 20 mg/kg): No colocalization of TUNEL signal | colocalization of TUNEL signal in cardiac myocytes ([3]; less than 10 mg/kg): No colocalization of TUNEL signal | immunoreactive Mn-SOD in mitochondria of cells in the cardiac outflow tract (FIG. 4) ([4]; versus carrier): upregulation | upregulation of MnSOD protein signal ([4]; most likely area of the sino-atrial node proper): 11 fold | upregulation of MnSOD protein signal ([4]; region of the atrium surrounding the sino-atrial node): 3.4 fold | gas bubbles released from myocardial cells on H2O2 addition (endogenous peroxidase activity) [5]: remarkable amounts of gas bubbles were released | IGFBP5 expression in cardiac myocytes [6]: moderately upregulated | death of mouse pups after gavage [7]: sudden death of mouse pups
